The test system of assay [1] is RWLeu4. Kind of assay: Change in cell surface marker (CD11b) along monocyte-macrophage pathway on RWLeu-4 cells; value represents the percentage of total cells positive for CD11b marker. The class given is functional, Homo sapiens.
For assay [2], the system named is RWLeu4. Briefly: Concentration required to decrease [3H]thymidine incorporation by 50 percent in RWLeu4 CML cell line as compared to untreated cells was determined. Type of assay: functional, cell-based. Conditions: Homo sapiens. Background: Incorporation of labelled thymidine or its analogues reports DNA synthesis.
Assay [3] deals with RWLeu4. Kind of assay: Change in cell surface marker (CD4) along monocyte-macrophage pathway on RWLeu-4 cells; value represents the percentage of total cells positive for CD4 marker. Type of assay: functional, Homo sapiens.

The structures appear in SMILES notation.

The record followed here is ChEMBL document CHEMBL1126545, “Metabolism and biological activity of 1,25(OH)2D2 and its metabolites in a chronic myelogenous leukemia cell line, rwleu-4” (Bioorg Med Chem Lett, 1993).

With `C=C1/C(=C\C=C2/CCC[C@]3(C)[C@@H]([C@H](C)/C=C/C(C)C(C)(C)O)CC[C@@H]23)C[C@@H](O)C[C@@H]1O` (stereo partly specified), the Cells positive worked out at 88% in assay [1] and 15% in assay [3]. The compound also gave an IC50 in assay [2] of 13 nM. For `C=C1/C(=C\C=C2/CCC[C@]3(C)[C@@H]([C@H](C)/C=C/C(O)(CO)C(C)(C)O)CC[C@@H]23)C[C@@H](O)C[C@@H]1O` (stereo partly specified), the IC50 in assay [2] is over 100 nM.

As to `C=C1/C(=C\C=C2/CCC[C@@]3(C)C2CC[C@@H]3[C@H](C)/C=C/C(C)(O)C(C)(O)CO)C[C@@H](O)C[C@@H]1O` (stereo partly specified), in assay [2], the IC50 was found to be 11 nM. In other words, the double-digit nanomolar range. The same measure, in the same setting: to `C=C1/C(=C\C=C2/CCC[C@]3(C)[C@@H]([C@H](C)CC[C@@H](O)C(C)(C)O)CC[C@@H]23)C[C@@H](O)C[C@@H]1O` belongs 11 nM.

On to `C=C1/C(=C\C=C2/CCC[C@@]3(C)C2CC[C@@H]3[C@H](C)/C=C/C(C)C(C)(O)CO)C[C@@H](O)C[C@@H]1O` (stereo partly specified), for which the Cells positive amounted to 89% in assay [1] and 21% in assay [3]. The compound also registered an IC50 in assay [2] of 8 nM. In turn, `C=C1/C(=C\C=C2/CCC[C@@]3(C)C2CC[C@@H]3[C@H](C)/C=C/C(C)(O)C(C)(C)O)C[C@@H](O)C[C@@H]1O` (stereo partly specified) returned an IC50 in assay [2] of 11 nM. `C=C1/C(=C\C=C2/CCC[C@]3(C)[C@@H]([C@H](C)/C=C/C(CO)C(C)(C)O)CC[C@@H]23)C[C@@H](O)C[C@@H]1O` (stereo partly specified) came in with an IC50 in assay [2] of 96 nM.

The term IC50 denotes the concentration that inhibits the measured activity by half.
